Literature values, collected in patent US8673356B2, “Stable fixed dose topical formulation” (Glenmark Pharmaceuticals Limited, priority 2008, dated 2014).

How the values were obtained:
[1] = converted in vivo by hydrolysis to active clindamycin

Solubility in ethanol (ethanol) | Solubility in tetrahydrofuran (tetrahydrofuran) | Solubility in water | Structure (SMILES) | Activity in vitro [1]
very slightly soluble | soluble | practically insoluble | COc1ccc(-c2ccc3cc(C(=O)O)ccc3c2)cc1C12CC3CC(CC(C3)C1)C2 [Adapalene, 6-[3-(1-adamantyl)-4-methoxyphenyl]-2-naphthoic acid] | –
– | – | water soluble | CCC[C@@H]1C[C@@H](C(=O)NC(C2O[C@H](SC)[C@H](OP(=O)(O)O)[C@@H](O)[C@H]2O)[C@H](C)Cl)N(C)C1 (stereo partly drawn) [Clindamycin phosphate, methyl 7-chloro-6,7,8-trideoxy-6-(1-methyl-trans-4-propyl-L-2-pyrrolidinecarboxamido)-1-thio-L-threo-D-galactooctopyranoside 2-(dihydrogen phosphate)] | inactive
